One experiment concerns the target T1, HDAC6 enzyme (Homo sapiens, UniProt Q9UBN7).
T1 construct: transducing full length HDAC6 gene into Sf-9 insect cells; GST; purchased SignalChem; host or cells: Sf-9 insect cells
T1 sequence (Q9UBN7 1-1215): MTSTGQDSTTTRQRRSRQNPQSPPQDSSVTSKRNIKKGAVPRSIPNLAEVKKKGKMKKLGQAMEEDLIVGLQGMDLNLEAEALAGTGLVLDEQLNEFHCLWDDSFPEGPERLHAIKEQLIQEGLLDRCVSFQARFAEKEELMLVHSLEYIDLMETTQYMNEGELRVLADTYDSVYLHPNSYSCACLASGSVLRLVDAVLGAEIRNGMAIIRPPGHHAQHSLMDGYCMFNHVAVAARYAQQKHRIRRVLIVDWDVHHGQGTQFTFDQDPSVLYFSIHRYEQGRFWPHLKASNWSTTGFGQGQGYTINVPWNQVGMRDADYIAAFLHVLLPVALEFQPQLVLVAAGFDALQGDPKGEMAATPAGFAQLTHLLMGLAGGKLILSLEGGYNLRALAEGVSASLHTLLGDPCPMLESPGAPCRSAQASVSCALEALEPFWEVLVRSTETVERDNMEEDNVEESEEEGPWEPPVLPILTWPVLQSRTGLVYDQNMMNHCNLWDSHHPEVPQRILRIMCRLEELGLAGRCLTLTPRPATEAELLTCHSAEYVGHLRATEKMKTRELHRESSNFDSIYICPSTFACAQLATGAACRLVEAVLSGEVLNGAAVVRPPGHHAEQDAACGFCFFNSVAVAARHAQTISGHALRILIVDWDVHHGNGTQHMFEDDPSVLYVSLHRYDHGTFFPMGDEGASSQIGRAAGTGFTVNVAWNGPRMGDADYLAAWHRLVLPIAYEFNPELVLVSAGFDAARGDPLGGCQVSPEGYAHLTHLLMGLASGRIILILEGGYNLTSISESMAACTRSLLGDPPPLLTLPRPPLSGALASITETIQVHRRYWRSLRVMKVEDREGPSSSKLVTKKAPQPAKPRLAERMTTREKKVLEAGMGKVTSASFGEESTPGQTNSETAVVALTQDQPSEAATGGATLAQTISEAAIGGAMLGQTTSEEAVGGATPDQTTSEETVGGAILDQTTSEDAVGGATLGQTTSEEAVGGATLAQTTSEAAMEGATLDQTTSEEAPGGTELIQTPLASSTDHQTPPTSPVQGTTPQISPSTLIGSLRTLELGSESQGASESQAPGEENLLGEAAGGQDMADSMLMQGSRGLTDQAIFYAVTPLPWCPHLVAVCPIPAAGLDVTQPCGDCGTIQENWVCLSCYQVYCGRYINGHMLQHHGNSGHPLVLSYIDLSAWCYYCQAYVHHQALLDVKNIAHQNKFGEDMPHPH
Kind of experiment: HDAC6 enzyme inhibitory activity (HDAC-Glo I/II Assay kit). In kind it is biochemical. The following applies: 10 μM; wells without enzyme = 100% inhibition. The procedure, abridged:
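Inhibition is calculated as relative activity, taking luminescence in enzyme-free wells as complete inhibition. The enzyme, full-length and GST-purified after Sf-9 expression, was exposed to compound for 60 min at room temperature before a 20 min HDAC-Glo reaction.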
In the case of `O=C1c2cc(-c3nnc(C(F)F)o3)ccc2CN1N1CCC(F)(F)CC1c1ccc(F)cn1` (stereo not drawn) [Example 610, 2-(4,4-Difluoro-2-(5-fluoropyridin-2-yl)piperidin-1-yl)-6-(5-(difluoromethyl)-1,3,4-oxadiazol-2-yl)isoindolin-1-one (Optical Isomer)], the “HDAC6 inhibitory rate (%) (10 μM)” value turned out to be 99%.

For the compound `O=C1c2cc(-c3nnc(C(F)F)o3)ccc2CN1N1CCC(F)(F)CC1c1ccc(F)cn1` (stereo not drawn) [Example 612, 2-(4,4-Difluoro-2-(5-fluoropyridin-2-yl)piperidin-1-yl)-6-(5-(difluoromethyl)-1,3,4-oxadiazol-2-yl)isoindolin-1-one (Optical Isomer)], the “HDAC6 inhibitory rate (%) (10 μM)” value amounted to 99%. On the same count and under the same terms, under `Cc1ccc(C2CC(F)(F)CCN2N2Cc3ccc(-c4nnc(C(F)F)o4)cc3C2=O)nc1` (stereo not drawn) [Example 614, 6-(5-(difluoromethyl)-1,3,4-oxadiazol-2-yl)-2-(4,4-difluoro-2-(5-methylpyridin-2-yl)piperidin-1-yl)isoindolin-1-one (optical isomer)] stands 99%; under `Cc1ccc(C2CC(F)(F)CCN2N2Cc3ccc(-c4nnc(C(F)F)o4)cc3C2=O)nc1` (stereo not drawn) [Example 615, 6-(5-(difluoromethyl)-1,3,4-oxadiazol-2-yl)-2-(4,4-difluoro-2-(5-methylpyridin-2-yl)piperidin-1-yl)isoindolin-1-one (optical isomer)], 99%. Still for that read-out and setting: in the case of `O=C1c2cc(-c3nnc(C(F)F)o3)cnc2CN1[C@@H]1COCC[C@H]1Oc1ccc(F)cc1` [Example 633, 1,5-anhydro-2,4-dideoxy-2-(3-(5-(difluoromethyl)-1,3,4-oxadiazol-2-yl)-5-oxo-5,7-dihydro-6H-pyrrolo[3,4-b]pyridin-6-yl)-3-O-(4-fluorophenyl)-threo-pentitol (Optical Isomer)] it was 100%.

The experiment is the same for the next values; noted with them: 10 μM; wells without enzyme = 100% inhibition; read-out: HDAC6 inhibitory rate (%) (10 μM).
As to `Cn1cc(C2CCCCN2N2Cc3ccc(-c4nnc(C(F)F)o4)cc3C2=O)cn1` (stereo not shown) [Example 609, 6-(5-(difluoromethyl)-1,3,4-oxadiazol-2-yl)-2-(2-(1-methyl-1H-pyrazol-4-yl)piperidin-1-yl)isoindolin-1-one], the inhibition at 10 µM turned out to be 99%. Still for that read-out and setting: under `CC(=O)N1CCC(C2CCCCN2N2Cc3ccc(-c4nnc(C(F)F)o4)cc3C2=O)CC1` (stereo not shown) [Example 611, 2-(1′-acetyl-2,4′-bipiperidin-1-yl)-6-(5-(difluoromethyl)-1,3,4-oxadiazol-2-yl)isoindolin-1-one] stands 101%; under `O=C(N[C@H]1[C@H](N2Cc3ncc(-c4nnc(C(F)F)o4)cc3C2=O)CCCC1(F)F)C(C(F)(F)F)C(F)(F)F` [Example 613, N-((1S,6R)-6-(3-(5-(difluoromethyl)-1,3,4-oxadiazol-2-yl)-5-oxo-5,7-dihydro-6H-pyrrolo[3,4-b]pyridin-6-yl)-2,2-difluorocyclohexyl)-3,3,3-trifluoro-2-(trifluoromethyl)propanamide], 99%; under `O=C1c2cc(-c3nnc(C(F)F)o3)ccc2CN1c1cccn2ccnc12` [Example 616, 6-(5-(difluoromethyl)-1,3,4-oxadiazol-2-yl)-2-(imidazo[1,2-a]pyridin-8-yl)isoindolin-1-one], 89%. For the compound `O=C1c2cc(-c3nnc(C(F)F)o3)ccc2CN1N1CCOCC1c1ccc(F)cc1` (stereo not shown) [Example 617, 6-(5-(difluoromethyl)-1,3,4-oxadiazol-2-yl)-2-(3-(4-fluorophenyl)morpholin-4-yl)isoindolin-1-one], the inhibition at 10 µM stood at 100%. Still for that read-out and setting: under `O=C(N[C@@H]1[C@H](N2Cc3ccc(-c4nnc(C(F)F)o4)cc3C2=O)CCCC1(F)F)OCc1ccccc1` [Example 619, benzyl ((1R,6R)-6-(6-(5-(difluoromethyl)-1,3,4-oxadiazol-2-yl)-1-oxo-1,3-dihydro-2H-isoindol-2-yl)-2,2-difluorocyclohexyl)carbamate] stands 100%. Consider `N[C@@H]1[C@H](N2Cc3ccc(-c4nnc(C(F)F)o4)cc3C2=O)CCCC1(F)F` [Example 621, 2-((1R,2R)-2-amino-3,3-difluorocyclohexyl)-6-(5-(difluoromethyl)-1,3,4-oxadiazol-2-yl)isoindolin-1-one], for which the inhibition at 10 µM was 88%. On the same count and under the same terms, under `O=C(NCC(F)(F)C(F)(F)F)C1CC(F)(F)CCN1N1Cc2ccc(-c3nnc(C(F)F)o3)cc2C1=O` (stereo not shown) [Example 622, 1-(6-(5-(difluoromethyl)-1,3,4-oxadiazol-2-yl)-1-oxo-1,3-dihydro-2H-isoindol-2-yl)-4,4-difluoro-N-(2,2,3,3,3-pentafluoropropyl)piperidine-2-carboxamide] stands 100%. With `O=C(NCC(F)F)C1CC(F)(F)CCN1N1Cc2ccc(-c3nnc(C(F)F)o3)cc2C1=O` (stereo not shown) [Example 623, N-(2,2-difluoroethyl)-1-(6-(5-(difluoromethyl)-1,3,4-oxadiazol-2-yl)-1-oxo-1,3-dihydro-2H-isoindol-2-yl)-4,4-difluoropiperidine-2-carboxamide], the inhibition at 10 µM came to 100%. The same measure, in the same setting: in the case of `O=C1c2cc(-c3nnc(C(F)F)o3)ccc2CN1[C@@H]1CCCC(F)(F)[C@@H]1NC(=O)C(F)(F)C(F)(F)F` [Example 625, N-((1R,6R)-6-(6-(5-(difluoromethyl)-1,3,4-oxadiazol-2-yl)-1-oxo-1,3-dihydro-2H-isoindol-2-yl)-2,2-difluorocyclohexyl)-2,2,3,3,3-pentafluoropropanamide] it was 101%; in that of `CC(F)(F)C(=O)N[C@@H]1[C@H](N2Cc3ccc(-c4nnc(C(F)F)o4)cc3C2=O)CCCC1(F)F` [Example 626, N-((1R,6R)-6-(6-(5-(difluoromethyl)-1,3,4-oxadiazol-2-yl)-1-oxo-1,3-dihydro-2H-isoindol-2-yl)-2,2-difluorocyclohexyl)-2,2-difluoropropanamide], 100%.

With `COC(=O)N1CCC[C@@H](N2Cc3ccc(-c4nnc(C(F)F)o4)cc3C2=O)[C@H]1c1ccc(F)cc1` [Example 627, methyl (2R,3R)-3-(6-(5-(difluoromethyl)-1,3,4-oxadiazol-2-yl)-1-oxo-1,3-dihydro-2H-isoindol-2-yl)-2-(4-fluorophenyl)piperidine-1-carboxylate], the inhibition at 10 µM amounted to 100%.

On to `O=C1c2cc(-c3nnc(C(F)F)o3)ccc2CN1[C@@H]1CCCC(F)(F)[C@@H]1NC(=O)C(F)(F)C(F)F` [Example 628, N-((1R,6R)-6-(6-(5-(difluoromethyl)-1,3,4-oxadiazol-2-yl)-1-oxo-1,3-dihydro-2H-isoindol-2-yl)-2,2-difluorocyclohexyl)-2,2,3,3-tetrafluoropropanamide], for which the inhibition at 10 µM came to 100%. On the same count and under the same terms, under `O=C(N[C@@H]1[C@H](N2Cc3ccc(-c4nnc(C(F)F)o4)cc3C2=O)CCCC1(F)F)C(F)F` [Example 629, N-((1R,6R)-6-(6-(5-(difluoromethyl)-1,3,4-oxadiazol-2-yl)-1-oxo-1,3-dihydro-2H-isoindol-2-yl)-2,2-difluorocyclohexyl)-2,2-difluoroacetamide] stands 100%; under `Cc1ccc(C2CCCCN2N2Cc3ccc(-c4nnc(C(F)F)o4)cc3C2=O)cn1` (stereo not shown) [Example 630, 6-(5-(difluoromethyl)-1,3,4-oxadiazol-2-yl)-2-(2-(6-methylpyridin-3-yl)piperidin-1-yl)isoindolin-1-one], 100%; under `Cn1cc(C(C)(C)O)c(N2Cc3ccc(-c4nnc(C(F)F)o4)cc3C2=O)n1` [Example 631, 6-(5-(difluoromethyl)-1,3,4-oxadiazol-2-yl)-2-(4-(2-hydroxypropan-2-yl)-1-methyl-1H-pyraozl-3-yl)isoindolin-1-one], 99%. Consider `O=C1c2cc(-c3nnc(C(F)F)o3)cnc2CN1[C@@H]1COCC[C@H]1Oc1ccc(F)cc1` [Example 632, 1,5-anhydro-2,4-dideoxy-2-(3-(5-(difluoromethyl)-1,3,4-oxadiazol-2-yl)-5-oxo-5,7-dihydro-6H-pyrrolo[3,4-b]pyridin-6-yl)-3-O-(4-fluorophenyl)-threo-pentitol], for which the inhibition at 10 µM came out at 99%.
